Patent publication US20230190760A1, “ADVANTAGEOUS THERAPIES FOR DISORDERS MEDIATED BY IKAROS OR AIOLOS” (C4 Therapeutics, Inc., priority 2020, published 2023)

What was measured:
[1] = tested on: KI-JK ALCL tumors; experiment: KI-JK ALCL xenograft efficacy (Example 17); type: in vivo, mice; settings: 30 or 100 μg/kg PO daily for 21 days
Method: A xenograft study was conducted in female NOD SCID mice bearing KI-JK ALCL tumors.
Data are expressed as MTV±SEM.

[2] = tested on: TMD8; experiment: Anti-proliferative activity, 96 hours; settings: Homo sapiens, TMD8, 96 h
[3] = tested on: HH; experiment: Anti-proliferative activity, 96 hours; settings: Homo sapiens
[4] = tested on: TMD8 DLBCL tumors; settings: Compound 1 50 μg/kg, Ibrutinib 12500 μg/kg
Method: A xenograft study was conducted in female CB17 SCID mice bearing TMD8 DLBCL tumors. Female SCID mice were inoculated subcutaneously in the right flank with 5×10^6 tumors cells in 0.2 mL of PBS supplemented with matrigel (PBS:matrigel=1:1). Tumor volume was measured twice weekly in two dimensions using calipers, and volume was calculated using the formula: (w2×l)/2=mm^3, assuming 1 mg is equivalent to 1 mm^3 of tumor volume. […] Treatment began on Day 0 with established subcutaneous TMD8 tumors with a mean tumor volume (MTV) of 107-108 mm^3.
All agents were administered to mice bearing TMD8 tumors on day 0 and dosed PO daily until individual tumor volumes reached or exceeded 1500 mm^3, at which point dosing stopped and the individual mouse was removed from the study. Compound 1 was dosed at 50 μg/kg and was formulated in PEG400 (30% v/v)+70% v/v HPMC (1% w/v) in citrate buffer (pH 5). Ibrutinib was dosed at 12.5 mg/kg and formulated in 0.5% MC+0.4% cremophor EL+0.1% sodium lauryl sulfate. Compound 1 was also dosed in combination with Ibrutinib at their respective single agent doses. Body weight and MTV was measured on a 2× weekly schedule and the study end point was when all mice were removed from the study on day 54. Statistical analysis was performed using survival analysis and the Logrank test (Mantel-Cox test). Data are expressed as MTV±SEM.

[5] = tested on: proteins in DL40 tumor lysates; experiment: Global proteomics of ALCL ALK+ DL40 xenograft tumors, mice treated orally with 100 μg/kg; type: in vivo, mouse
Method: NOD SCI mouse bearing ALCL ALK+DL40 xenografts were treated orally with 100 μg/kg of Compound 1. After 1, 4, 24 and 48 hour treatment, biological duplicates of tumoral cells were harvested, washed twice with PBS, and snap frozen in liquid nitrogen. Samples were resuspended in lysis buffer [8 M urea, 50 mM EPPS (pH 8.5), 50 mM NaCl, lx protease inhibitor cocktail] and lysed by sonication. Lysates were centrifuged at maximum speed, reduced for 1 hour at room temperature with 5 mM TCEP, and the cysteine residues were then alkylated with 15 mM iodoacetamide (room temperature, in dark, 30 minutes). Protein content was extracted twice by methanol-chloroform precipitation and subsequent ice-cold acetone washes. Protein pellets were resuspended in 8 M urea, 50 mM EPPS (pH 8.5) buffer and protein concentrations were measured by BCA assay. Samples were then diluted to 4 M urea with 50 mM EPPS (pH 8.5) and digested at 37° C. for 1 hour with endoproteinase Lys-C, at a 1/100 enzyme/protein ratio. The mixtures were then diluted to 1 M urea with 50 mM EPPS (pH 8.5) and trypsin was added at a 1/50 enzyme/protein ratio. The reaction was incubated overnight at 37° C. and stopped by acidification with formic acid 0.5% (v/v). Peptides were loaded on tC18 SepPak solid-phase extraction cartridges and lyophilized.
For peptide labeling, 100 μg of peptides per sample was prepared at […] concentration in 200 mM EPPS (pH 8.5), ACN was added to a final concentration of 30% and then 50 μg of each TMT 10 reagent. After 1 hour incubation at room temperature, reactions were quenched with 0.3% hydroxylamine for 15 minutes and mixed equally. The mixed sample was desalted using the tC18 SepPak solid-phase extraction cartridges, and lyophilized. Dried peptides were resuspended in 5% ACN, 10 mM NH4HCO3 pH 8 and fractionated in a basic pH reversed phase chromatography using a HPLC equipped with a 3.5 μm XBridge Peptide BEH C18 column. 96 fractions were collected, which were consolidated into 24, of which only 12 nonadjacent samples were analyzed. Samples were desalted, dried via vacuum centrifugation and reconstituted in 12 μL of 5% formic for LC-MS/MS analysis.
A third of each sample (4 μL) was separated by reversed phase chromatography using an EASY-Spray C18 column (2 μm particle size, 250 mm length×75 μm ID) mounted in an EASY-nLC 1200 LC pump coupled to an Orbitrap Fusion Lumos Tribid mass spectrometer. Peptides were separated using a 420 min gradient of 2 to 30% acetonitrile at a flow rate of ˜300 nL/min. Each analysis was performed using the multi-notch MS3 (SPS-MS3) scan. For the identification and relative quantification, all RAW files obtained from the mass spectrometer were transformed using SEQUEST-based software. Briefly, mass spectra were searched against the human Uniprot database (February 2016) concatenated with a database composed of all protein sequences in the reversed order as well as known contaminants. In all SEQUEST searches, precursor ion tolerance was set at 25 ppm and product ion tolerance at 0.9 Da, including methionine oxidation (+15.9949 Da) and cysteine carbamidomethylation (+57.0215 Da) as variable modifications. TMT tag (+229.1629 Da) on lysine residues and peptide N-termini were set as static modifications. Peptide-spectrum matches (PSMs) were performed using a linear discriminant analysis and adjusted to a […]. Peptide intensities were quantified by extracting the signal-to-noise ratio and proteins were further collapsed to a final protein-level FDR of 2%. Protein quantification values were exported to Excel, GraphPad Prism 7 or Perseus14 for further analysis.

[6] = tested on: WSU-DLCL2; experiment: Anti-proliferative activity, 96 hours; settings: Homo sapiens, WSUDLCL2, 96 h
[7] = tested on: IKZF1/3; experiment: Ex vivo IKZF1/3 degradation in PBMC, cynomolgus monkey; type: cell-based; settings: cynomolgus monkey cells
Method: IKZF1/3 are not degraded in mouse cells treated with thalidomide or its IMiD® analogs because of a single amino acid difference in mouse cereblon compared to human cereblon that causes steric hindrance and prevents recruitment of IKZF1/3. Ex vivo studies were performed in peripheral blood cells (PBMC) of mice, rats, dogs, and monkeys to identify relevant species for IND enabling-toxicity studies based on the degree of IKZF1 degradation by Compound 1. IKZF1 was not degraded in mouse or rat cells by Compound 1, thus, while rat could not be considered a pharmacologically relevant species for human risk assessment, it was chosen as the rodent species for toxicological studies because it is widely used in toxicity testing and a substantial historical toxicology database is available. […] Therefore, cynomolgus monkey was chosen for non-rodent toxicological studies.

O=C1CC[C@H](N2C(=O)c3cccc4c(Cc5ccc(CN6CCOCC6)cc5)ccc2c34)C(=O)N1 (single isomer, unassigned) [Compound 1]
tumor volume [1]: decreased
IC50 [2]: 0.078 nM
IC50 [3]: 58 nM
Median Survival ([4]; Combination of both, PO daily): 30
Statistical Significance Compared to Vehicle ([4]; survival, Logrank, Combination): 0.02
Log2 FC vs Vehicle, IKZF1 ([5]; 4 Hour): −2.466
Log2 FC vs Vehicle, IKZF3 ([5]; 4 Hour): −2.006
Log2 FC vs Vehicle, ACTA1 ([5]; 24 Hour): −1.089
Log2 FC vs Vehicle, ACTN2 ([5]; 24 Hour): −1.304
Log2 FC vs Vehicle, AK1 ([5]; 24 Hour): −1.041
Log2 FC vs Vehicle, APOBEC2 ([5]; 24 Hour): −1.355
Log2 FC vs Vehicle, ATP2A1 ([5]; 24 Hour): −1.427
Log2 FC vs Vehicle, CASQ1 ([5]; 24 Hour): −1.333
Log2 FC vs Vehicle, CKM ([5]; 24 Hour): −1.248
Log2 FC vs Vehicle, CKMT2 ([5]; 24 Hour): −1.544
Log2 FC vs Vehicle, FHL1 ([5]; 24 Hour): −1.311
Log2 FC vs Vehicle, IKZF1 ([5]; 24 Hour): −2.515
Log2 FC vs Vehicle, IKZF3 ([5]; 24 Hour): −1.761
Log2 FC vs Vehicle, JPH2 ([5]; 24 Hour): −1.117
Log2 FC vs Vehicle, KLHL41 ([5]; 24 Hour): −1.142
Log2 FC vs Vehicle, LDB3 ([5]; 24 Hour): −1.136
Log2 FC vs Vehicle, MYBPC1 ([5]; 24 Hour): −1.366
Log2 FC vs Vehicle, MYBPC2 ([5]; 24 Hour): −1.146
Log2 FC vs Vehicle, MYH1 ([5]; 24 Hour): −1.258
Log2 FC vs Vehicle, MYH2 ([5]; 24 Hour): −1.188
Log2 FC vs Vehicle, MYH3 ([5]; 24 Hour): −1.165
Log2 FC vs Vehicle, MYH4 ([5]; 24 Hour): −1.05
Log2 FC vs Vehicle, MYH7 ([5]; 24 Hour): −2.977
Log2 FC vs Vehicle, MYH7B ([5]; 24 Hour): −1.231
Log2 FC vs Vehicle, MYH13 ([5]; 24 Hour): −1.102
Log2 FC vs Vehicle, MYL1 ([5]; 24 Hour): −1.3
Log2 FC vs Vehicle, MYL4 ([5]; 24 Hour): −1.344
Log2 FC vs Vehicle, MYLPF ([5]; 24 Hour): −1.434
Log2 FC vs Vehicle, MYOM1 ([5]; 24 Hour): −1.201
Log2 FC vs Vehicle, NEB ([5]; 24 Hour): −1.184
Log2 FC vs Vehicle, OAS1 ([5]; 24 Hour): 1.172
Log2 FC vs Vehicle, PVALB ([5]; 24 Hour): −1.105
Log2 FC vs Vehicle, PYGM ([5]; 24 Hour): −1.139
Log2 FC vs Vehicle, SPR ([5]; 24 Hour): 1.088
Log2 FC vs Vehicle, SRL ([5]; 24 Hour): −1.252
Log2 FC vs Vehicle, TNNC2 ([5]; 24 Hour): −1.035
Log2 FC vs Vehicle, TNNI2 ([5]; 24 Hour): −1.377
Log2 FC vs Vehicle, TPM1 ([5]; 24 Hour): −1.146
Log2 FC vs Vehicle, TRIM72 ([5]; 24 Hour): −1.083
Log2 FC vs Vehicle, TTN ([5]; 24 Hour): −1.117
Log2 FC vs Vehicle, ZFP91 ([5]; 24 Hour): −1.279
fold change, IKZF1 downregulated ([5]; 4 hours): 5.5
fold change, IKZF3 downregulated ([5]; 4 hours): 4.1
selectivity, proteins degraded ([5]; 4 hours post a single dose of 100 μg/kg, >7900 proteins detected): degrading only IKZF1/3
IC50 [6]: 2.8 nM
degrading IKZF1/3 [7]: highly effective
